# According to patent US7425549B2, “Drug for the treatment of osteonecrosis and for the management of patients at risk of developing osteonecrosis” (The Royal Alexandra Hospital for Children, priority 2001, dated 2008):
# System: traumatic osteonecrosis (femoral head)
# Test: Model of traumatic osteonecrosis of the femoral head in rats, six weeks after operation
# Assay type: in vivo, Wistar rats
# Details: for BMC / BMD: femoral head, DEXA; for XR Head Area (% Contra): operated femoral head, six weeks
# Excerpt: A model of traumatic osteonecrosis was utilised in 24 female 14-week-old Wistar rats. The animals were followed for six weeks after an operation designed to disrupt the blood supply to the femoral head. The six week time point was chosen as a time point when femoral head collapse is known to have occurred in this model ^1. Animal ethics approval was received.
# Rats were randomised in lots of 4 into three groups according to the schedule below. Controls receive only saline (S) injections via a subcutaneous route. Post-treated animals received saline only pre-operatively, but zoledronic acid (ZA) (Novartis) 0.1 mg/kg, from commercial stock, was administered by subcutaneous injection post-operatively at 1 and 4 weeks. Pre and Post-treated animals received zoledronic acid 0.1 mg/kg at all three time points.
# The same operation was performed on each rat at time zero. All animals were weighed accurately before anaesthesia. Animals were kept warm during surgery and recovery. Anaesthesia was induced with a mixture of Ketamine 75 mg/kg and Xylazine 10 mg/kg. Drugs were mixed in the same syringe just prior to administration and given 0.2 mL per 100 g BW IM. Induction occurred within 5-10 minutes.
# After sterile preparation and shaving of the right lower extremity, an open approach was made to the hip joint. The capsule was opened, and the right femoral head was dislocated from the acetabulum. The ligamentum teres divided, disrupting any blood supply from that source. The entire femoral neck was denuded of soft tissue by polishing with a vicryl suture. This disrupted the lateral epiphyseal artery and any other vessels supplying the head via the femoral neck.
# Dual fluorescent labels were applied at weeks 4 and 5: at week 4 demeclocycline 30 mg/kg was administered intraperitoneally, and at week 5 calcein 20 mg/kg was administered intraperitoneally. One hour prior to culling 70 MBq Tc99 MDP was administered subcutaneously to allow bone scintigraphy to be performed on harvested specimens.
# After culling, right and left proximal femora were harvested and fixed in 4% paraformaldehyde. Radiographs were taken in pairs on high quality film with a Faxitron Shielded Cabinet X-Ray System (Hewlett Packard, McMinnville, Oreg. X-ray images were digitised and analysed using Bioquant image analysis system (R&M Biometrics Inc., Nashville, Tenn.) connected to a digitizing tablet (GTCO CalComp, Inc., Columbia, Md.). Bone area, height and width of the femoral head were recorded and compared to the contralateral side. Scintigraphy scans were taken using 4 mm aperture pinholes. BMD and BMC were measured with a pDEXA Sabre scanner (Norland, Ft Atkinson Wis.).
# Specimens were resin embedded and sectioned undecalcified. Coronal sections (6 microns) were cut through the femoral head. Sections were stained with von Kossa to assess trabecular bone volume and structure. Fluorescent microscopy was used on unstained sections to image the fluorescent labels and assess bone formation.
# [1] = Post-Treated: 0.1 mg/kg s.c. at 1 and 4 weeks post-operatively
# [2] = Pre- and Post: 0.1 mg/kg s.c. at all three time points
structure (smiles),measurement,setting,value
"O=P(O)(O)C(O)(Cn1ccnc1)P(=O)(O)O [zoledronic acid, 1-hydroxy-2-[(1H-imidazol-1-yl)ethylidine] bisphosphonic acid]",BMC,[1],0.012 g
same,BMD,[1],0.11 g/cm^2
same,XR Head Area (% Contra),[1],79 % Contra
same,BMC,[2],0.015 g
same,BMD,[2],0.12 g/cm^2
same,XR Head Area (% Contra),[2],85 % Contra
